Earlier results on one substance are cited in article PMC7406630, “A new ^68Ga-labeled somatostatin analog containing two iodo-amino acids for dual somatostatin receptor subtype 2 and 5 targeting” (EJNMMI Research, 2020).

What all share (set-up): method as in PMID 29523357
The target of data set [1] is T1, human SST5 (Homo sapiens, UniProt P35346).
T1 construct: expressed in transfected cells; host or cells: HEK293 (HEK-SST5)
To be noted: read-out: SST5 IC50, nM (95% CI); HEK-SST5 cells, ^125I-SS-14 radioligand; published earlier but measured head-to-head; cited from earlier work.

Data set [2] has as its target T2, human SST2 (Homo sapiens, UniProt P30874).
T2 construct: expressed in transfected cells; host or cells: HEK293 (HEK-SST2)
To be noted: read-out: SST2 EC50, nM (95% CI); cAMP, HEK-SST2 cells; cited from earlier work.

The target in data set [3] is T1, human SST5. To be noted: read-out: SST5 EC50, nM (95% CI); cAMP, HEK-SST5 cells; cited from earlier work.
Data set [4] deals with T2, human SST2. Particulars: read-out: SST2 IC50, nM (95% CI); HEK-SST2 cells, ^125I-SS-14 radioligand; published earlier but measured head-to-head; cited from earlier work.

T1 sequence (P35346 whole entry): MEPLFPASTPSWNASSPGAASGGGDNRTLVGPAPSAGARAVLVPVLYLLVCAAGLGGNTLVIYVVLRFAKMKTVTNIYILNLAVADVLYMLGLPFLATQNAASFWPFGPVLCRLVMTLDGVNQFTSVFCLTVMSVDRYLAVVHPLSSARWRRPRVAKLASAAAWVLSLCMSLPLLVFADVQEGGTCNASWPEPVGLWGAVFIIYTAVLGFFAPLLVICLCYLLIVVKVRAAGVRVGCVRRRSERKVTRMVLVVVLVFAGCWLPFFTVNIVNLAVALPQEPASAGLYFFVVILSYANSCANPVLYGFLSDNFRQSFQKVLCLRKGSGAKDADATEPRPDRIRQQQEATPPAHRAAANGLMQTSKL
T2 sequence (P30874 whole entry): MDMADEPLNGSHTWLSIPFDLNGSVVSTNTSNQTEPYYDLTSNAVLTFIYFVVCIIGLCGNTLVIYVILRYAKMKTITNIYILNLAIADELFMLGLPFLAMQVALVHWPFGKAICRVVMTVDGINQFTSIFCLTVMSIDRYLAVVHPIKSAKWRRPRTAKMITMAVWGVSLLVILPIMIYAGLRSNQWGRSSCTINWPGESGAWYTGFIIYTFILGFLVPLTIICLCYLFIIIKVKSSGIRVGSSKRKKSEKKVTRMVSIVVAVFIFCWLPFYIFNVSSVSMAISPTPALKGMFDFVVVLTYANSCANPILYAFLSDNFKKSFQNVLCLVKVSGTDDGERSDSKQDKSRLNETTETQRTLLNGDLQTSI

Consider Pasireotide, for which the figures for the IC50 on human SST5 [1] and at human SST2 [4] were 0.2 nM and 3.1 nM, respectively. The concentration for a half-maximal effect (EC50) at human SST2 [2] was 1.1 nM; at human SST5 [3] it was 0.6 nM.

As usually defined, the IC50 is the concentration that gives 50% inhibition. Usually EC50 stands for the concentration at which the effect is half-maximal.
